28 compounds from US8110571B2, “Benzimidazole and benzothiazole derivatives, method for preparing same, use thereof as drugs, pharmaceutical compositions and novel use especially as c-MET inhibitors” (Aventis Pharma S.A., priority 2005, dated 2012) can be followed below.

Structures can show the parent of a compound that is named as a salt.

In the case of `O=C(CCC1CCNCC1)Nc1nc2ccc(OS(=O)(=O)c3c(Cl)cccc3Cl)cc2s1` (as salt: benzenesulfonate) [Example 47, 2-[(3-Piperidin-4-ylpropanoyl)amino]-1,3-benzothiazol-6-yl 2,6-dichlorobenzenesulfonate], the melting point (usually the temperature, or range, at which the solid turns liquid) came to 134 °C.
Under `O=C(CCCC1CCNCC1)Nc1nc2ccc(OS(=O)(=O)c3c(Cl)cccc3Cl)cc2s1` (as salt: benzenesulfonate) [Example 48, 2-[(4-Piperidin-4-ylbutanoyl)amino]-1,3-benzothiazol-6-yl 2,6-dichlorobenzenesulfonate] stands 114 °C; under `O=C(NCCCN1CCOCC1)Nc1nc2ccc(OS(=O)(=O)c3c(Cl)cccc3Cl)cc2s1` (as salt: benzenesulfonate) [Example 53, 2-{[(3-morpholin-4-ylpropyl)carbamoyl]amino}-1,3-benzothiazol-6-yl 2,6-dichlorobenzenesulfonate], 94 °C.
Turning to `CN(CCCNC(=O)Nc1nc2ccc(OS(=O)(=O)c3c(Cl)cccc3Cl)cc2s1)c1ccccc1` (as salt: benzenesulfonate) [Example 54, 2-[({3-[methyl(phenyl)amino]propyl}carbamoyl)amino]-1,3-benzothiazol-6-yl 2,6-dichlorobenzenesulfonate], the melting point worked out at 68 °C.
`O=C(NCCN1CCC(Cc2ccccc2)CC1)Nc1nc2ccc(OS(=O)(=O)c3c(Cl)cccc3Cl)cc2s1` (as salt: benzenesulfonate) [Example 55, 2-({[2-(4-benzylpiperidin-1-yl)ethyl]carbamoyl}amino)-1,3-benzothiazol-6-yl 2,6-dichlorobenzenesulfonate] came in with a melting point of 95 °C.
On to `O=C(NCCN1CCCC1)Nc1nc2ccc(OS(=O)(=O)c3c(Cl)cccc3Cl)cc2s1` (as salt: benzenesulfonate) [Example 56, 2-{[(2-pyrrolidin-1-ylethyl)carbamoyl]amino}-1,3-benzothiazol-6-yl 2,6-dichlorobenzenesulfonate], for which the melting point was determined as 99 °C.
For `O=C(Nc1nc2ccc(OS(=O)(=O)c3c(Cl)cccc3Cl)cc2s1)N1CCC[C@@H]1CN1CCCC1` (as salt: benzenesulfonate) [Example 57, 2-({[(2R)-2-(pyrrolidin-1-ylmethyl)pyrrolidin-1-yl]carbonyl}amino)-1,3-benzothiazol-6-yl 2,6-dichlorobenzenesulfonate], the melting point was 204 °C.
`O=C(Nc1nc2ccc(OS(=O)(=O)c3c(Cl)cccc3Cl)cc2s1)N1CCC[C@H]1CN1CCCC1` (as salt: benzenesulfonate) [Example 58, 2-({[(2S)-2-(pyrrolidin-1-ylmethyl)pyrrolidin-1-yl]carbonyl}amino)-1,3-benzothiazol-6-yl 2,6-dichlorobenzenesulfonate] gave a melting point of 210 °C.
Consider `O=C(NCCCN1CCCC1)Nc1nc2ccc(OS(=O)(=O)c3c(Cl)cccc3Cl)cc2s1` (as salt: benzenesulfonate) [Example 59, 2-{[(3-pyrrolidin-1-ylpropyl)carbamoyl]amino}-1,3-benzothiazol-6-yl 2,6-dichlorobenzenesulfonate], for which the melting point was found to be 96 °C.
Under `CN1CCN(CCNC(=O)Nc2nc3ccc(OS(=O)(=O)c4c(Cl)cccc4Cl)cc3s2)CC1` (as salt: benzenesulfonate) [Example 60, 2-({[2-(4-methylpiperazin-1-yl)ethyl]carbamoyl}amino)-1,3-benzothiazol-6-yl 2,6-dichlorobenzenesulfonate] stands 100 °C; under `CN1CCCC1CCNC(=O)Nc1nc2ccc(OS(=O)(=O)c3c(Cl)cccc3Cl)cc2s1` (stereo not shown) (as salt: benzenesulfonate) [Example 61, 2-({[2-(1-methylpyrrolidin-2-yl)ethyl]carbamoyl}amino)-1,3-benzothiazol-6-yl 2,6-dichlorobenzenesulfonate], 178 °C.
Turning to `CN(C)CCCNC(=O)Nc1nc2ccc(OS(=O)(=O)c3c(Cl)cccc3Cl)cc2s1` (as salt: benzenesulfonate) [Example 62, 2-({[3-(dimethylamino)propyl]carbamoyl}amino)-1,3-benzothiazol-6-yl 2,6-dichlorobenzenesulfonate], the melting point was 100 °C.
As for `CC1CCCC(C)N1CCNC(=O)Nc1nc2ccc(OS(=O)(=O)c3c(Cl)cccc3Cl)cc2s1` (stereo not shown) (as salt: benzenesulfonate) [Example 63, 2-({[2-(2,6-dimethylpiperidin-1-yl)ethyl]carbamoyl}amino)-1,3-benzothiazol-6-yl 2,6-dichlorobenzenesulfonate], the melting point was found to be 122 °C.
The value for `O=C(NCCN1CCCCC1)Nc1nc2ccc(OS(=O)(=O)c3c(Cl)cccc3Cl)cc2s1` (as salt: benzenesulfonate) [Example 64, 2-{[(2-piperidin-1-ylethyl)carbamoyl]amino}-1,3-benzothiazol-6-yl 2,6-dichlorobenzenesulfonate] was 172 °C.
In the case of `O=C(NCCCN1CCCC1=O)Nc1nc2ccc(OS(=O)(=O)c3c(Cl)cccc3Cl)cc2s1` (as salt: benzenesulfonate) [Example 65, 2-({[3-(2-oxopyrrolidin-1-yl)propyl]carbamoyl}amino)-1,3-benzothiazol-6-yl 2,6-dichlorobenzenesulfonate], the melting point was 195 °C.
The value for `CN(C)c1ccc(CNC(=O)Nc2nc3ccc(OS(=O)(=O)c4c(Cl)cccc4Cl)cc3s2)cc1` (as salt: benzenesulfonate) [Example 66, 2-({[4-(dimethylamino)benzyl]carbamoyl}amino)-1,3-benzothiazol-6-yl 2,6-dichlorobenzenesulfonate] was 154.5 °C.
Under `O=C(NCCCN1CCN(Cc2c(F)cccc2Cl)CC1)Nc1nc2ccc(OS(=O)(=O)c3c(Cl)cccc3Cl)cc2s1` (as salt: benzenesulfonate) [Example 67, 2-[({3-[4-(2-chloro-6-fluorobenzyl)piperazin-1-yl]propyl}carbamoyl)amino]-1,3-benzothiazol-6-yl 2,6-dichlorobenzenesulfonate] stands 93 °C.
The value for `O=C(NCCCN1CCN(Cc2ccccc2)CC1)Nc1nc2ccc(OS(=O)(=O)c3c(Cl)cccc3Cl)cc2s1` (as salt: benzenesulfonate) [Example 68, 2-({[3-(4-benzylpiperazin-1-yl)propyl]carbamoyl}amino)-1,3-benzothiazol-6-yl 2,6-dichlorobenzenesulfonate] was 218 °C; that for `CN1CCN(CCCNC(=O)Nc2nc3ccc(OS(=O)(=O)c4c(Cl)cccc4Cl)cc3s2)CC1` (as salt: benzenesulfonate) [Example 69, 2-({[3-(4-methylpiperazin-1-yl)propyl]carbamoyl}amino)-1,3-benzothiazol-6-yl 2,6-dichlorobenzenesulfonate] was 96.5 °C.
Turning to `O=C(NCc1ccc(N2CCOCC2)cc1)Nc1nc2ccc(OS(=O)(=O)c3c(Cl)cccc3Cl)cc2s1` (as salt: benzenesulfonate) [Example 70, 2-{[(4-morpholin-4-ylbenzyl)carbamoyl]amino}-1,3-benzothiazol-6-yl 2,6-dichlorobenzenesulfonate], the melting point was found to be 177 °C.
In the case of `O=C(Nc1nc2ccc(OS(=O)(=O)c3c(Cl)cccc3Cl)cc2s1)NC1CCCCCC1` (as salt: benzenesulfonate) [Example 72, 2-[(cycloheptylcarbamoyl)amino]-1,3-benzothiazol-6-yl 2,6-dichlorobenzenesulfonate], the melting point was found to be 163 °C.
Under `O=C(Nc1nc2ccc(OS(=O)(=O)c3c(Cl)cccc3Cl)cc2s1)NC1CCCC1` (as salt: benzenesulfonate) [Example 73, 2-[(cyclopentylcarbamoyl)amino]-1,3-benzothiazol-6-yl 2,6-dichlorobenzenesulfonate] stands 249 °C; under `CC(C)NC(=O)Nc1nc2ccc(OS(=O)(=O)c3c(Cl)cccc3Cl)cc2s1` (as salt: benzenesulfonate) [Example 74, 2-[(isopropylcarbamoyl)amino]-1,3-benzothiazol-6-yl 2,6-dichlorobenzenesulfonate], 169 °C.
On to `O=C(NCCN1CCCCCC1)Nc1nc2ccc(OS(=O)(=O)c3c(Cl)cccc3Cl)cc2s1` (as salt: benzenesulfonate) [Example 76, 2-{[(2-azepan-1-ylethyl)carbamoyl]amino}-1,3-benzothiazol-6-yl 2,6-dichlorobenzenesulfonate], for which the melting point came out at 146 °C.
In turn, `O=C(NCc1cccnc1)Nc1nc2ccc(OS(=O)(=O)c3c(Cl)cccc3Cl)cc2s1` (as salt: benzenesulfonate) [Example 78, 2-{[(pyridin-3-ylmethyl)carbamoyl]amino}-1,3-benzothiazol-6-yl 2,6-dichlorobenzenesulfonate] had a melting point of 227 °C.
The value for `O=C(NCCC1CCNCC1)Nc1nc2ccc(OS(=O)(=O)c3c(Cl)cccc3Cl)cc2s1` (as salt: trifluoroacetic acid salt) [Example 35, 2-{[(2-Piperidin-4-ylethyl)carbamoyl]amino}-1,3-benzothiazol-6-yl 2,6-dichlorobenzenesulfonate] was 240 °C; that for `Cc1cccc(Cl)c1S(=O)(=O)Oc1ccc2[nH]c(NC(=O)NCCN3CCOCC3)nc2c1` [Example 11, 2-{[(2-Morpholin-4-ylethyl)carbamoyl]amino}-1H-benzimidazol-5-yl 2-chloro-6-methylbenzenesulfonate] was 168 °C.
Under `Nc1cc(Cl)cc(Cl)c1S(=O)(=O)Oc1ccc2nc(NC(=O)NCCN3CCOCC3)sc2c1` [Example 39, 2-{[(2-Morpholin-4-ylethyl)carbamoyl]amino}-1,3-benzothiazol-6-yl 2-amino-4,6-dichlorobenzenesulfonate] stands 128 °C.
